Results as given in patent US20260217701A1, “SELECTIVE BET INHIBITORS AND USES THEREOF” (Tay Therapeutics Limited, priority 2022, published 2026).
Where “and” joins values, the source holds several entries; their conditions need not be identical. Identical values can stand only once. Like-named read-outs stand apart in the source and are kept apart here.

Assays:
[1] = UUO study: clinical observations; format: in vivo; details: UUO rats; 10 mg/kg
IL-17A = IL-17A release from activated human PBMCs (ELISA); format: cell-based
Experimental: Human PBMCs used to analyze inhibition of CXCL10 were collected from 8 donors, PBMCs used to analyze inhibition of IL-17A were collected from 7 donors, and PBMCs used to analyze inhibition of IL-22 were collected from 6 donors. Compounds were serially diluted in 10 mM DMSO and further diluted in assay media to 100× the required final concentration, of which 2 μL was added to the specified well. […] The cell culture supernatant was collected and levels of IL-17A and IL-22 in the supernatant were assessed by ELISA (Invitrogen).

[2] = Rat PK study #2 (Compound A PO 5 mg/kg, DMSO/PEG-400/water); format: in vivo, SD rats
Experimental: For the second rat pharmacokinetic study, the pharmacokinetics of Compound A were assessed in male SD rats. Compound A was prepared in a formulation of 5% DMSO, 40% PEG-400, and 55% Milli-Q water (see formulation in Table 2D) and delivered to animals orally (PO) at a dose of 5 mg/kg. Animals (n=3) were then monitored over a 24-hour period.
Blood samples (~0.2 mL) were collected according to a schedule (0.083, 0.25, 0.5, 1, 2, 4, 8, and 24 h following the initial dosing) by jugular vein by cannulation and EDTA-K2 was used as anticoagulant. Within 30 minutes of collection, the samples were centrifuged at approximately 4000 times g-force for 5 minutes at 4° C. to obtain blood plasma. The plasma samples were immediately divided into two aliquots (~75 μL each), transferred to a cryogenic vial, and stored in a freezer at −75±15° C. prior to analysis.
The concentration of Compound A in plasma samples was determined by liquid chromatography-mass spectrometry (LC-MS/MS) using a Shimadzu HPLC (DGU-405; LC-30AD XS CN; SIL-40AC XSCN; Plate Changer CN; CTO-40C CN; and CBM-40 CN) and an AB API 7500+LC/MS/MS instrument. Samples were analyzed on a Raptor Biphenyl 2.7 μm (50×2.1 mm) column. Solution A in the mobile phase was 95% water (0.1% formic acid) and solution B was 95% acetonitrile in water (0.1% formic acid), injection volume was 15 μL, and flow rate was 0.6 mL/min.
To prepare samples for analysis, serial concentrations were prepared by diluting the stock solution of analyte with a 50% acetonitrile in water solution. 5 μL working solutions (5, 10, 20, 50, 100, 500, 1000, 5000, and 10000 ng/ml) were added to 50 μL of the blank SD rat plasma to achieve calibration standards of ~0.5 to 1000 ng/ml (0.5, 1, 2, 5, 10, 50, 100, 500, and 1000 ng/ml) in a total volume of 55 μL. Five quality control samples at 1 ng/ml, 2 ng/ml, 5 ng/ml 50 ng/ml, and 800 ng/ml for plasma were prepared independently of those used for the calibration curves. These QC samples were prepared on the day of analysis in the same way as calibration standards.
55 μL of standards, 55 μL of QC samples and 55 μL of unknown samples (50 μL of unknown rat plasma with 5 μL of blank solution) were added to 200 μL of acetonitrile containing IS mixture (verapamil) for precipitating protein respectively. The samples were then vortexed for 30 s. After centrifugation at 4° C., 3900 rpm for 15 min, the supernatant was diluted 3 times with water. […] of diluted supernatant was injected into the LC/MS/MS system for quantitative analysis.

[3] = SD rats, PO 5 mg/kg, DMSO/PEG-400/Milli-Q water formulation, individual animals, 5 mg/kg
[4] = SD rats, PO 5 mg/kg, DMSO/PEG-400/Milli-Q water formulation, mean of 3 animals
[5] = male, Sprague-Dawley, rat, plasma, po, 5 mg/kg, SD rats, PO 5 mg/kg, DMSO/PEG-400/Milli-Q water formulation, mean of 3 animals

With `Cn1cc(-c2ccccc2)c(-c2cn(C)c(=O)c3[nH]c(-c4cnn(C(F)(F)F)c4)cc23)cc1=O` [Compound A, 6-methyl-4-(1-methyl-2-oxo-5-phenyl-1,2-dihydropyridin-4-yl)-2-(1-(trifluoromethyl)-1H-pyrazol-4-yl)-1,6-dihydro-7H-pyrrolo[2,3-c]pyridin-7-one] the “Clinical observations assessed daily” value [1] was “soft stools on just one study day”, the “potency against IL-17A relative to CXCL10” value (IL-17A) was “about 13,000 fold” and the “Biomarker selectivity (IL-17 vs. CXCL10)” value (IL-17A; Average preliminary biomarker assay) was 3492 Fold. For the same compound, the “Percent Inhibition Relative to Control (IL-17A)” value (IL-17A; Compound Conc. 0.000137174 μM, Donors 1-7, two values per donor) was 30.76% and 39.93% and 12.53% and 17.16% and 22.57% and 38.63% and 4.46% and 42.02% and 55.02* Percent and 40.50% and 25.91% and 19.06% and 25.23% and 32.91%, the “Percent Inhibition Relative to Control (IL-17A)” value (IL-17A; Compound Conc. 0.000411523 μM, Donors 1-7, two values per donor) was 42.92% and 60.88% and 49.48% and 23.24% and 46.54% and 52.23% and 60.62% and 51.01% and 51.11% and 62.34% and 51.68% and 47.46% and 28.29% and 56.37% and the “Percent Inhibition Relative to Control (IL-17A)” value (IL-17A; Compound Conc. 0.001234568 μM, Donors 1-7, two values per donor) was 56.92% and 75.17% and 53.28% and 57.9% and 62.54% and 63.56% and 62.80% and 67.54% and 70.18% and 58.60% and 66.13% and 59.19% and 60.91% and 75.98%. For the same compound, the “Percent Inhibition Relative to Control (IL-17A)” value (IL-17A; Compound Conc. 0.011111111 μM, Donors 1-7, two values per donor) was 75.17% and 74.77% and 72.8%, the “Percent Inhibition Relative to Control (IL-17A)” value (IL-17A; Compound Conc. 0.033333333 μM, Donors 1-7, two values per donor) was 76.69% and 83.98% and 75.68% and 76.46% and 73.03% and 78.96% and 78.00% and 81.52% and 83.08% and 69.43% and 73.08% and 77.7% and 78.81% and 89.99% and the “Percent Inhibition Relative to Control (IL-17A)” value (IL-17A; Compound Conc. 0.1 μM, Donors 1-7, two values per donor) was 80.29% and 80.05% and 78.2% and 79.86% and 80.34% and 80.42% and 83.72% and 86.56% and 80.96% and 85.39% and 77.87% and 84.04% and 85%. The “Percent Inhibition Relative to Control (IL-17A)” value (IL-17A; Compound Conc. 1.52416E−05 μM, Donors 1-7, two values per donor) was −2.11% and 5.95% and 4.5% and 4.36% and −0.57% and 6.2% and −11.47% and 18.94% and 28.57% and 13.94% and 37.95% and −8.34% and 0.61% and 18.05%, the “Percent Inhibition Relative to Control (IL-17A)” value (IL-17A; Compound Conc. 4.57247E−05 μM, Donors 1-7, two values per donor) was −1.00% and 28.73% and 7.45% and 18.97% and 13.64% and 16.93% and −0.28% and 32.68% and 27.06% and 28.89% and 20.58% and 2.83% and 7.11% and 42.94% and the IC50 (IL-17A; Homo sapiens, PBMC, Average preliminary biomarker assay, read-out: IL-17A IC50 Mean) was 0.3 nM. It also gave an inhibition at 0.1 µM (IL-17A; Homo sapiens, PBMC, Compound Conc. 0.1 μM, Donors 1-7, two values per donor, read-out: Percent Inhibition Relative to Control (IL-17A)) of 80.8%, an IC50 (IL-17A; Homo sapiens, PBMC, Preliminary biomarker assay, Test Subject 1, read-out: IL-17A IC50) of 0.2 nM and an IC50 (IL-17A; Homo sapiens, PBMC, Preliminary biomarker assay, Test Subject 2, read-out: IL-17A IC50) of 0.3 nM. For the same compound, the IC50 (IL-17A; Homo sapiens, PBMC, Preliminary biomarker assay, Test Subject 3, read-out: IL-17A IC50) was 0.4 nM, the IC50 (IL-17A; Homo sapiens, PBMC, ELISA, read-out: Selectivity (IC50) IL-17A) was 0.271 nM and the “IC50, inhibition of release of IL-17A” value (IL-17A; human PBMCs, 72 hours) was “sub-nanomolar”. The “effectiveness relative to GSK620 in reducing IL-17A, IL-22 and CXCL10” value (IL-17A; preliminary biomarker assays) was “more effective than GSK620”, the Clinical observations ([2]; 5 mg/kg PO, 24 h, one animal soft feces at 8 h) was “no abnormalities recorded” and the “Plasma Concentration” value ([2]; SD rats, PO 5 mg/kg, DMSO/PEG-400/Milli-Q water formulation, 0.083 h, individual animals, 5 mg/kg) was 9.76 ng/mL and 0.719 ng/mL and 2.15 ng/mL. For the same compound, the “Plasma Concentration” value ([2]; SD rats, PO 5 mg/kg, DMSO/PEG-400/Milli-Q water formulation, 0.25 h, individual animals, 5 mg/kg) was 7.42 ng/mL and 5.44 ng/mL and 12.5 ng/mL, the “Plasma Concentration” value ([2]; SD rats, PO 5 mg/kg, DMSO/PEG-400/Milli-Q water formulation, 0.5 h, individual animals, 5 mg/kg) was 31.9 ng/mL and 15.4 ng/mL and 32.7 ng/mL and the “Plasma Concentration” value ([2]; SD rats, PO 5 mg/kg, DMSO/PEG-400/Milli-Q water formulation, 1 h, individual animals, 5 mg/kg) was 62.6 ng/mL and 38.4 ng/mL and 101 ng/mL. For the same compound, the “Plasma Concentration” value ([2]; SD rats, PO 5 mg/kg, DMSO/PEG-400/Milli-Q water formulation, 2 h, individual animals, 5 mg/kg) was 170 ng/mL and 64.8 ng/mL and 272 ng/mL, the “Plasma Concentration” value ([2]; SD rats, PO 5 mg/kg, DMSO/PEG-400/Milli-Q water formulation, 4 h, individual animals, 5 mg/kg) was 472 ng/mL and 218 ng/mL and 496 ng/mL and the “Plasma Concentration” value ([2]; SD rats, PO 5 mg/kg, DMSO/PEG-400/Milli-Q water formulation, 8 h, individual animals, 5 mg/kg) was 532 ng/mL and 181 ng/mL and 302 ng/mL. The “Plasma Concentration” value ([2]; SD rats, PO 5 mg/kg, DMSO/PEG-400/Milli-Q water formulation, 24 h, individual animals, 5 mg/kg) was 2.11 ng/mL and 5.81 ng/mL and 6.35 ng/mL, the AUClast [2, 3] was 7070 ng·h/mL and 2643 ng·h/mL and 5058 ng·h/mL and the AUClast/D [2, 3] was 1414 mg·h/mL and 529 mg·h/mL and 1012 mg·h/mL. For the same compound, the Cmax [2, 3] was 532 ng/mL and 218 ng/mL and 496 ng/mL, the F [2, 3] was 81.5% and 30.5% and 58.3% and the AUClast/D [2, 4] was 985 mg·h/mL. The F [2, 4] was 56.8%, the concentration at 1 h ([2]; male, SD, rat, plasma, po, 5 mg/kg, SD rats, PO 5 mg/kg, DMSO/PEG-400/Milli-Q water formulation, 1 h, mean of 3 animals) was 67 ng/mL and the concentration at 2 h ([2]; male, SD, rat, plasma, po, 5 mg/kg, SD rats, PO 5 mg/kg, DMSO/PEG-400/Milli-Q water formulation, 2 h, mean of 3 animals) was 169 ng/mL. It also gave a concentration at 4 h ([2]; male, SD, rat, plasma, po, 5 mg/kg, SD rats, PO 5 mg/kg, DMSO/PEG-400/Milli-Q water formulation, 4 h, mean of 3 animals) of 395 ng/mL, a concentration at 8 h ([2]; male, SD, rat, plasma, po, 5 mg/kg, SD rats, PO 5 mg/kg, DMSO/PEG-400/Milli-Q water formulation, 8 h, mean of 3 animals) of 338 ng/mL and a concentration at 0.083 h ([2]; male, Sprague-Dawley, rat, plasma, po, 5 mg/kg, SD rats, PO 5 mg/kg, DMSO/PEG-400/Milli-Q water formulation, 0.083 h, mean of 3 animals) of 4.21 ng/mL. For the same compound, the concentration at 0.25 h ([2]; male, Sprague-Dawley, rat, plasma, po, 5 mg/kg, SD rats, PO 5 mg/kg, DMSO/PEG-400/Milli-Q water formulation, 0.25 h, mean of 3 animals) was 8.5 ng/mL, the concentration at 0.5 h ([2]; male, Sprague-Dawley, rat, plasma, po, 5 mg/kg, SD rats, PO 5 mg/kg, DMSO/PEG-400/Milli-Q water formulation, 0.5 h, mean of 3 animals) was 26.7 ng/mL and the concentration at 24 h ([2]; male, Sprague-Dawley, rat, plasma, po, 5 mg/kg, SD rats, PO 5 mg/kg, DMSO/PEG-400/Milli-Q water formulation, 24 h, mean of 3 animals) was 4.75 ng/mL. For the same compound, the Tmax ([2]; male, Sprague-Dawley, rat, plasma, po, 5 mg/kg, SD rats, PO 5 mg/kg, DMSO/PEG-400/Milli-Q water formulation, individual animals) was 8 h, the AUC(0-t) [2, 5] was 4920 ng·h/mL and the Tmax [2, 5] was 5.33 h. The Cmax ([2]; male, Sprague-Dawley, rat, plasma, po, 5 mg/kg, SD rats, PO 5 mg/kg, DMSO/PEG-400/Milli-Q water formulation, mean of 3 animals, read-out: Cmax) was 415 ng/mL.
